Experiments:
[1] = molecular target: T1, Lactamase, Pseudomonas aerogenosa Dalgleish (Pseudomonas aeruginosa, UniProt P16897); experiment: Lactamase inhibition, enzyme from Pseudomonas aerogenosa Dalgleish; assay type: biochemical; details: source of enzyme Pseudomonas aerogenosa Dalgleish; read-out: Lactamase inhibition I50 (converted)
T1 construct: Source of; endogenous in cells; host or cells: Pseudomonas aeruginosa strain Dalgleish

[2] = molecular target: Lactamase, Proteus mirabilis C889; experiment: Lactamase inhibition, enzyme from Proteus mirabilis C889; assay type: biochemical; details: source of enzyme Proteus mirabilis C889
[3] = molecular target: T2, Lactamase, Enterobacter P99 (Enterobacter cloacae, UniProt P05364); experiment: Lactamase inhibition, enzyme from Enterobacter P99; assay type: biochemical; details: source of enzyme Enterobacter P99; read-out: Lactamase inhibition I50 (converted)
T2 construct: Source of; endogenous in cells; host or cells: Enterobacter (cloacae) strain P99

[4] = molecular target: T3, Lactamase, Staph. aureus Russell (Staphylococcus aureus, UniProt P00807); experiment: Lactamase inhibition, enzyme from Staph. aureus Russell; assay type: biochemical; details: source of enzyme Staph. aureus Russell; read-out: Lactamase inhibition I50 (converted)
T3 construct: Source of; endogenous in cells; host or cells: Staphylococcus aureus strain Russell

[5] = molecular target: Lactamase, Kleb. aerogenes E70; experiment: Lactamase inhibition, enzyme from Kleb. aerogenes E70; assay type: biochemical; details: source of enzyme Kleb. aerogenes E70
Lactamase, E. coli JT 4 = molecular target: T4, Lactamase, E. coli JT 4 (Escherichia coli, UniProt P62593); experiment: Lactamase inhibition, enzyme from E. coli JT 4; assay type: biochemical; details: source of enzyme E. coli JT 4; read-out: Lactamase inhibition I50 (converted)
T4 construct: Source of; endogenous in cells; host or cells: Escherichia coli strain JT 4

Klebsiella aerogenes E70 = experiment: Effect on MIC of ampicillin against β-lactamase producing bacteria, Klebsiella E 70; assay type: cell-based; details: ampicillin alone
Procedure: (§1) a. Compounds of this invention were tested by conventional methods to determine their effect on the MIC (minimum inhibitory concentration) values of ampicillin against certain β-lactamase producing bacteria. The results for the compounds of the formula [drawing 124] were as follows: […]

[6] = tested on: Staphylococcus aureus Russell; experiment: Effect on MIC of ampicillin against β-lactamase producing bacteria, Staphylococcus aureus Russell; assay type: cell-based; details: ampicillin alone, Staph. aureus Russell
Procedure: as §1

mice = experiment: Acute toxicity in mice, subcutaneous; assay type: in vivo

T3 sequence (P00807 25-281): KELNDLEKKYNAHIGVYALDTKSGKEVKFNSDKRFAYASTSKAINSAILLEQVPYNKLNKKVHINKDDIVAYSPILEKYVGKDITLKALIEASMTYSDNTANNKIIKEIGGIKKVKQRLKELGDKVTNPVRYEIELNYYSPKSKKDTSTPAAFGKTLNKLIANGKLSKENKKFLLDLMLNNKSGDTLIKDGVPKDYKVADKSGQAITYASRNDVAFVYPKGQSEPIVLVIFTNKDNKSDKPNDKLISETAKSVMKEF
T4 sequence (P62593 24-286 limits assumed): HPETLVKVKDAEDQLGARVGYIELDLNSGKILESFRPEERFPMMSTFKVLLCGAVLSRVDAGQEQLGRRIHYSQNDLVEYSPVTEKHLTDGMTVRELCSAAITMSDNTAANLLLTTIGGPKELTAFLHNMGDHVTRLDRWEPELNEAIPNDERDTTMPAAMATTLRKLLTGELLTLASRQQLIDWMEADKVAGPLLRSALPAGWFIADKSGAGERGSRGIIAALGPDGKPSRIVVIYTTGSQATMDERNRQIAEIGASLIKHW
T1 sequence (P16897 18-288): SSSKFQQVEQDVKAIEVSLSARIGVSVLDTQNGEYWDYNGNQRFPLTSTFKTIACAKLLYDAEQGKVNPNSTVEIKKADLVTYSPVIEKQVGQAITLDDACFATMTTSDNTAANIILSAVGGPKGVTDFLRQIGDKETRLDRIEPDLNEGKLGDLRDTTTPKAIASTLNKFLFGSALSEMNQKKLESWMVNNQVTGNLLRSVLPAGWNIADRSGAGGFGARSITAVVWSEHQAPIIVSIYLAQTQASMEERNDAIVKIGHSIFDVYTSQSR
T2 sequence (P05364 21-381): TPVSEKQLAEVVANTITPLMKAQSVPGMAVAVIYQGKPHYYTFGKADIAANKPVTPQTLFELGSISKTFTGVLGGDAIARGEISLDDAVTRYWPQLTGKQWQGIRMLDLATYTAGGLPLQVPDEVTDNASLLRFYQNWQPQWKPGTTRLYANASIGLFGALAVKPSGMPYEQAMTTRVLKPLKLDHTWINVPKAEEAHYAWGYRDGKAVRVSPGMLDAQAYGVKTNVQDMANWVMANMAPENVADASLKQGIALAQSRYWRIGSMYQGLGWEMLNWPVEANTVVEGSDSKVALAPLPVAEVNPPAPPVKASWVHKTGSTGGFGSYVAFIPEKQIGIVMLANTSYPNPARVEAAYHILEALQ

Compound	IC50 [1] [µM]	Lactamase inhibition I50 [2] [µg/mL]	IC50 [3] [µM]	IC50 [4] [µM]	Lactamase inhibition I50 [5] [µg/mL]	IC50 (Lactamase, E. coli JT 4) [µM]	also measured
C[C@@H](NC(=O)/C=C1\CN2C(=O)C[C@H]2O1)c1ccccc1 [Example 5-R-epimer, (E)-5-R-3-[N-(R-1-Phenylethyl)carbamoylmethylene]-4-oxa-1-azabicyclo [3.2.0]heptan-7-one]	2.39	0.6	1.47	0.918	2.4	1.47	–
CC1(C)S[C@@H]2[C@H](NC(=O)[C@H](N)c3ccccc3)C(=O)N2[C@H]1C(=O)O [ampicillin]	–	–	–	–	–	–	MIC (Klebsiella aerogenes E70): > 2000 µg/mL; MIC [6]: 250 µg/mL
O=C(O)/C(=C1\CN2C(=O)CC2O1)c1ccccc1 (stereo not shown) [Z1=H, Z2=CO2 Na, Z3=C6 H5, Sodium (E)-7-oxo-4-oxa-1-azabicyclo[3.2.0]heptane-3-(benzylidene-1-carboxylate)]	–	–	–	–	–	–	deaths in a group of mice (mice; subcutaneously at 250 mg/kg): did not cause any deaths
C[C@@H](NC(=O)/C=C1\CN2C(=O)C[C@@H]2O1)c1ccccc1 [Example 5-S-epimer, (E)-5-S-[N-(R-1-Phenylethyl)carbamoylmethylene]-4-oxa-1-azabicyclo[3.2.0]heptan-7-one]	64.6	8.8	4.41	47.7	> 40	21.3	–
O=C(O)[C@H]1/C(=C/c2ccccc2)O[C@@H]2CC(=O)N21 (relative stereo) [Z1=CO2 Na, Z2=H, Z3=C6 H5, Sodium (Z)-(2RS,5RS)-(3-benzylidene)-7-oxo-4-oxa-1-azabicyclo[3,2,0]-heptane-2-carboxylate]	–	–	–	–	–	–	deaths in a group of mice (mice; subcutaneously at 1000 mg/kg): did not cause any deaths

Reference: patent US4206120A, “Oxaazabicycloheptane antibiotics” (Beecham Group Limited, priority 1976, dated 1980)
